Laboratory results taken from publication PMC2453235, “Identification and Rational Redesign of Peptide Ligands to CRIP1, A Novel Biomarker for Cancers” (PLoS Computational Biology, 2008).
Where a SMILES comes first, the peptide text is derived from it. Bridges are numbered along the chain shown (N, C = ends). Where no end group is shown, it is not given here. The star is where a group is joined. 5FAM = O=C1OC2(c3ccc(O)cc3Oc3cc(O)ccc32)c2ccc(C(=O)*)cc21

T1: CRIP1 (Homo sapiens, UniProt P50238)
T1 construct: enterokinase cleavage site and vector linker residues (N); made in house; host or cells: E. coli (pHAT10-CRIP1, IPTG induction)
T1 sequence (P50238 1-77): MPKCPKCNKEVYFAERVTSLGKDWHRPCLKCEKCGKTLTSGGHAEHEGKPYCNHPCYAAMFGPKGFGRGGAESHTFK

T2: Cysteine-rich intestinal protein 1 (CRIP1), purified protein coated on plates for the peptide binding assays (human, UniProt P50238 1-77)
T2 construct: Cysteine-rich intestinal protein 1 (CRIP1), human; coding region of the cDNA, 77 amino acids; also called CRIP1 protein; source: bacteria (pHAT10-CRIP1, IPTG induced), purified (TALON CellThru resin)
T2 sequence (looked up): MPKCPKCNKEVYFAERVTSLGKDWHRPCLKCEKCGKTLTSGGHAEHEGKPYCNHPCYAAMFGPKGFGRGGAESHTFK


The molecules below were run against T1, CRIP1 (assay: Phage display panning (Ph.D.-C7C library), frequency of enriched sequences). Settings: 4 rounds of panning against enterokinase-truncated CRIP1, 29 phage inserts sequenced.
Type: binding
Procedure: In order to generate CRIP1 protein that was as similar as possible to endogenous CRIP1, enterokinase cleavage was performed on purified CRIP1. Uncleaved contaminating HIS-tagged CRIP1 as well as HIS-tagged peptides were removed by re-running the digest over the CellThru resin and retaining the flow thru. […] After four rounds of positive selection against enterokinase-truncated CRIP1, 29 phage DNA inserts were sequenced using a 96 gIII primer (5′-^HOCCC TCA TAG TTA GCG TAA CG-3′). Sequencing verified that 18 of the 29 phagotopes were from the cysteine-constrained phage library, Table 1. Many of the peptide sequences contained similar motifs and six sequences occurred in more than one phagotope. The peptides A1 and C5 were identified four times, C1 three times, and A9, B1, and B5 twice. However, even accounting for conserved amino acid substitutions, no clear motif could be identified.
CRIP1 was digested with enterokinase (Roche Diagnostics, Inc.) to remove the His tag and then was used as bait for 4 rounds of panning with the Ph.D.-C7C Phage Display Peptide Library (New England Biolabs). The nucleotide sequence of the gene III insert was determined by sequencing the phage, and the amino acid sequence of the insert was deduced from the nucleotide sequence, shown in Table 1.

Molecule	Frequency (number of phage clones with the sequence)
APYNTLA (disulfide (positions not given here)) [A6, C7C phage display peptide APYNTLA]	1
DHRQGSS (disulfide (positions not given here)) [A5, C7C phage display peptide DHRQGSS]	1
FSTNMKT (disulfide (positions not given here)) [B3, C7C phage display peptide FSTNMKT]	1
HANFLHM (disulfide) [C2, C7C phage display peptide HANFLHM]	1
LPAYSTY (disulfide (positions not given here)) [B9, C7C phage display peptide LPAYSTY]	1
PLFKGMS (disulfide (positions not given here)) [B7, C7C phage display peptide PLFKGMS]	1
RDSSAHQ (disulfide (positions not given here)) [B10, C7C phage display peptide RDSSAHQ]	1
RTTGAQT (disulfide (positions not given here)) [B4, C7C phage display peptide RTTGAQT]	1
SLNTRSQ (disulfide (positions not given here)) [C9, C7C phage display peptide SLNTRSQ]	1
SPHIIAS (disulfide (positions not given here)) [A8, C7C phage display peptide SPHIIAS]	1
SVPINDS (disulfide) [A3, C7C phage display peptide SVPINDS]	1
YDPIWRT (disulfide (positions not given here)) [B2, C7C phage display peptide YDPIWRT]	1

The molecules below were run against T1, CRIP1 (assay: ELISA of individual phage clones binding to immobilized CRIP1). Settings: purified chimeric CRIP1 not reacted with enterokinase.
Source text: To select clones for further analysis, we used ELISA to determine the relative binding affinities of selected individual phage clones to purified CRIP1 (see Methods and Figure S3). For these studies the purified chimeric CRIP1 was not reacted with enterokinase.
Supplementary file pcbi.1000138.s003.tif: Figure S3 Relative estimates of peptide affinity for CRIP1. Phage binding against immobilized CRIP-1. (0.38 MB TIF) Click here for additional data file.

Molecule	relative binding affinity of phage clone
CC(C)C[C@@H]1NC(=O)[C@@H](N)CSSC[C@@H](C(=O)NCC(=O)NCC(=O)NCC(=O)N[C@@H](CO)C(=O)N[C@@H](CCCCN)C(N)=O)NC(=O)[C@H](CO)NC(=O)[C@H](CCCNC(=N)N)NC(=O)[C@H](Cc2c[nH]cn2)NC(=O)[C@H](CC(N)=O)NC(=O)[C@H](CC(=O)O)NC(=O)[C@H](CCCCN)NC1=O [A1] (H-CLKDNHRSCGGGSK-NH2; disulfide 1-9; N-terminus assumed)	higher relative affinity
CC[C@H](C)[C@@H]1NC(=O)[C@@H]2CCCN2C(=O)[C@H](CC(=O)O)NC(=O)[C@H](Cc2ccc(O)cc2)NC(=O)[C@@H](N)CSSC[C@@H](C(=O)NCC(=O)NCC(=O)NCC(=O)N[C@@H](CO)C(=O)N[C@@H](CCCCNC(=O)c2ccc3c(c2)C(=O)OC32c3ccc(O)cc3Oc3cc(O)ccc32)C(N)=O)NC(=O)[C@H]([C@@H](C)O)NC(=O)[C@H](CCCNC(=N)N)NC(=O)[C@H](Cc2c[nH]c3ccccc23)NC1=O [B5] (H-CYDPIWRTCGGGSK(5FAM)-NH2; disulfide 1-9; N-terminus assumed)	higher relative affinity
TPRQSPI (disulfide) [C5, C7C phage display peptide TPRQSPI]	lower binding affinity

What follows are molecules tested against T2, Cysteine-rich intestinal protein 1 … (assay: saturation binding of FITC-labelled peptide to protein-coated plates (fluorescence read-out); data not shown; 'similar assays' to the saturation binding of FITC-A1M on coated CRIP1; apparent Kd). Settings: both partners purified.

Molecule	Kd [µM]
CYDPIWRTCGGGSK-NH2 (disulfide 1-9 (inferred); not fully specified (residue 14); printed as C-Y-D-P-I-W-R-T-C-G-G-G-S-K-(FITC)-CONH_2_, insert of phage clone B5 (C7C library) followed by the phage spacer Gly-Gly-Gly-Ser and a C-terminal Lys for labelling; also called FITC-B5; source: synthetic peptide (Fmoc chemistry, HPLC purified, cyclised by oxidation in DMSO)) [FITC-cyclic-B5 peptide]	62.5
H-CLKDNHRSCGGGSK-NH2 (disulfide 1-9 (inferred); not fully specified (residue 14); printed as NH_2_-C-L-K-D-N-H-R-S-C-G-G-G-S-K-(FITC)-CONH_2_, insert of phage clone A1 (C7C library) followed by the phage spacer Gly-Gly-Gly-Ser and a C-terminal Lys for labelling; also called FITC-A1; parent A1 peptide; source: synthetic peptide (Fmoc chemistry, HPLC purified, cyclised by oxidation in DMSO)) [FITC-cyclic-A1 peptide]	34.4

These molecules were tested against T2, Cysteine-rich intestinal protein 1 … (assay: competitive binding on protein-coated plates (fluorescence read-out); CRIP1 coated on 96-well plates (100 µg/ml in PBS, overnight 4°C); 10 µM FITC-A1M held constant, unlabeled A1 or A1M 0 to 300 µM, 1 h at 37°C; one binding site model). Settings: both partners purified.

Molecule	IC50 [µM]	Ki [µM]
CLKDNHRSCGGGSK (disulfide 1-9 (inferred), also called original A1 peptide; source: synthetic peptide) [unlabeled A1 peptide]	8.8	
CLDGGGKGCGGGSK (disulfide 1-9 (inferred), source: synthetic peptide) [unlabeled A1M peptide]	0.32	0.067

These molecules were tested against T2, Cysteine-rich intestinal protein 1 … (assay: saturation binding of FITC-labelled peptide to protein-coated plates (fluorescence read-out); CRIP1 coated on 96-well plates (100 µg/ml in PBS, overnight 4°C), blocked with 0.5% BSA in TBS; FITC peptide 50 nM to 100 µM, 1 h at 37°C; non-specific binding with 1 mM unlabeled peptide; apparent Kd by non-linear regression). Settings: both partners purified.

Molecule	Kd [µM]
H-CLDGGGKGCGGGSK-NH2 (disulfide 1-9 (inferred); not fully specified (residue 14); printed as NH_2_-C-L-D-G-G-G-K-G-C-G-G-G-S-K-(FITC)-CONH_2_, also called FITC-A1M; modified A1; source: synthetic peptide (Fmoc chemistry, HPLC purified, cyclised by oxidation in DMSO)) [FITC-cyclic-A1M peptide]	2.6
